Test [1] concerns A549. As to the kind of experiment: Induction of cell cycle arrest in human A549 cells assessed as accumulation of cells at G2/M phase at 0.1 uM for 24 hrs by Click-iT EdU Alexa Fluor 647 flow cytometric assay kit analysis (reference value: 3%). The class given is functional. (In general: A flow cytometer gives signals particle by particle.)
Test [2] concerns NCI-H1373. As to the kind of experiment: Induction of cell cycle arrest in human NCI-H1373 cells assessed as accumulation of cells at G0/G1 phase at 1 uM for 24 hrs by Click-iT EdU Alexa Fluor 647 flow cytometric assay kit analysis (reference value: 40%). The class given is functional.
Test [3] deals with DV-90. The test is described as follows: Induction of apoptosis in human DV-90 cells assessed as viable cells at 0.5 uM for 24 hrs by annexin V-PI staining based flow cytometric analysis (reference value: 81.5%). Type of test: functional. The following applies: read-out: Activity.
Test [4] has as its system DV-90. The test is described as follows: Induction of apoptosis in human DV-90 cells assessed as early apoptotic cells at 0.5 uM for 24 hrs by annexin V-PI staining based flow cytometric analysis (reference value: 1.7%). Type of test: functional.
For test [5], the system named is DV-90. The test is described as follows: Induction of apoptosis in human DV-90 cells assessed as necrotic cells at 2.5 uM for 24 hrs by annexin V-PI staining based flow cytometric analysis (reference value: 5.4%). The class given is functional.
The test system of test [6] is A549. As to the kind of experiment: Induction of apoptosis in human A549 cells assessed as early apoptotic cells at 0.5 uM for 24 hrs by annexin V-PI staining based flow cytometric analysis (reference value: 0.4%). Type of test: functional.
For test [7], the system named is A549. As to the kind of experiment: Induction of apoptosis in human A549 cells assessed as necrotic cells at 0.5 uM for 24 hrs by annexin V-PI staining based flow cytometric analysis (reference value: 1.3%). Type of test: functional.
The subject of test [8] is A549. As to the kind of experiment: Induction of apoptosis in human A549 cells assessed as late apoptotic cells at 2.5 uM for 24 hrs by annexin V-PI staining based flow cytometric analysis (reference value: 2.3%). Type of test: functional.
Test [9] deals with A549. As to the kind of experiment: Induction of apoptosis in human A549 cells assessed as necrotic cells at 2.5 uM for 24 hrs by annexin V-PI staining based flow cytometric analysis (reference value: 1.3%). Type of test: functional.
The test system of test [10] is NCI-H1373. As to the kind of experiment: Induction of apoptosis in human NCI-H1373 cells assessed as late apoptotic cells at 2.5 uM for 24 hrs by annexin V-PI staining based flow cytometric analysis (reference value: 16.2%). The class given is functional.
Test [11] concerns NCI-H460. The test is described as follows: Induction of apoptosis in human NCI-H460 cells assessed as viable cells at 0.5 uM for 24 hrs by annexin V-PI staining based flow cytometric analysis (reference value: 94%). The conditions noted are these: read-out: Activity. The class given is functional.
Test [12] deals with NCI-H460. The test is described as follows: Induction of apoptosis in human NCI-H460 cells assessed as late apoptotic cells at 0.5 uM for 24 hrs by annexin V-PI staining based flow cytometric analysis (reference value: 3.0%). Type of test: functional.
The test system of test [13] is A549. As to the kind of experiment: Downregulation of c-MYC protein level in human A549 cells at 100 to 5000 nM upto 24 hrs by Western blot analysis. The class given is functional, cell-based. The conditions noted are these: dose 100-5000 nM. A general note: Immunoblotting shows a protein as a band on a membrane.
Test [14] relates to LCLC-97TM1. The test is described as follows: Downregulation of c-MYC mRNA expression level in human LCLC-97TM1 cells at 0.1 to 1 uM for 24 hrs by qRT-PCR analysis. Type of test: functional, cell-based. The conditions noted are these: dose 0.1-1 µM. Background: Real-time PCR tracks product formation cycle by cycle.
Test [15] relates to SK-LU-1. As to the kind of experiment: Downregulation of c-MYC mRNA expression level in human SK-LU-1 cells at 0.1 to 1 uM for 24 hrs by qRT-PCR analysis. The class given is functional, cell-based. The conditions noted are these: dose 0.1-1 µM.
For test [16], the system named is NCI-H1373. The test is described as follows: Antitumor activity against human NCI-H1373 cells xenografted in SCID mouse assessed as tumor weight ratio to control at 50 mg/kg, ip measured on after 15 days relative to control. The class given is functional. The conditions noted are these: time 15 day.
Test [17] relates to NCI-H1373. The test is described as follows: Downregulation of c-MYC level SCID mouse tumor tissue xenografted with human NCI-H1373 cells at 50 mg/kg, ip for 24 hrs by Western blot analysis. The conditions noted are these: Neoplasm. Type of test: functional, organism-based.
Test [18] has as its system DV-90. The test is described as follows: Downregulation of XIAP mRNA expression level in human DV-90 cells at 0.1 to 1 uM for 24 hrs by qRT-PCR analysis. Type of test: functional, cell-based. The following applies: dose 0.1-1 µM.
Test [19] relates to NCI-H23. The test is described as follows: Downregulation of XIAP mRNA expression level in human NCI-H23 cells at 0.1 to 1 uM for 24 hrs by qRT-PCR analysis. The conditions noted are these: dose 0.1-1 µM. Type of test: functional, cell-based.
Test [20] relates to A549. The test is described as follows: Downregulation of XIAP mRNA expression level in human A549 cells at 0.1 to 1 uM for 24 hrs by qRT-PCR analysis. The class given is functional, cell-based. The conditions noted are these: dose 0.1-1 µM.
The subject of test [21] is NCI-H1792. As to the kind of experiment: Downregulation of FLIP mRNA expression level in human NCI-H1792 cells at 0.1 to 1 uM for 24 hrs by qRT-PCR analysis. The class given is functional, cell-based. The following applies: dose 0.1-1 µM.
Test [22] deals with NCI-H2347. As to the kind of experiment: Downregulation of FLIP mRNA expression level in human NCI-H2347 cells at 0.1 to 1 uM for 24 hrs by qRT-PCR analysis. The class given is functional, cell-based. The conditions noted are these: dose 0.1-1 µM.
The test system of test [23] is NCI-H460. As to the kind of experiment: Downregulation of XIAP protein expression level in human NCI-H460 cells at 1 uM for 24 hrs by […] analysis. The class given is functional, cell-based.
Test [24] relates to SK-LU-1. The test is described as follows: Downregulation of c-MYC protein expression level in human SK-LU-1 cells at 1 uM for 24 hrs by […] analysis. The class given is functional, cell-based.
Test [25] has as its system NCI-H1373. As to the kind of experiment: Induction of TRAIL dependent apoptosis in human NCI-H1373 cells assessed as viable cells at 1 uM in presence of […] by annexin V-PI staining based flow cytometric analysis (reference value: 87.6%). Type of test: functional. The conditions noted are these: read-out: Activity.
For test [26], the system named is A549. The test is described as follows: Antiproliferative activity against human A549 cells at 500 to 2500 nM in presence of TNF by cell titre glo assay. Type of test: functional, cell-based. The following applies: dose 500-2500 nM.
Test [27] relates to A549. The test is described as follows: Antitumor activity against human A549 cells assessed as test to control tumor ratio administered at 80 mg/kg, ip for 7 days along with cisplatin for 5 days follwed by compound treatment for 14 days relative to control. Type of test: functional. The conditions noted are these: time 7 day.
Test [28] deals with A549. The test is described as follows: Induction of apoptosis in human A549 cells assessed as early apoptotic cells at 2.5 uM for 24 hrs by annexin V-PI staining based flow cytometric analysis (reference value: 0.2%). The class given is functional.
The subject of test [29] is A549. The test is described as follows: Induction of apoptosis in human A549 cells assessed as late apoptotic cells at 2.5 uM for 24 hrs by annexin V-PI staining based flow cytometric analysis (reference value: 1.2%). Type of test: functional.
Test [30] concerns A549. As to the kind of experiment: Induction of apoptosis in human A549 cells assessed as necrotic cells at 2.5 uM for 24 hrs by annexin V-PI staining based flow cytometric analysis (reference value: 0.9%). Type of test: functional.
Test [31] deals with NCI-H1373. The test is described as follows: Induction of cell cycle arrest in human NCI-H1373 cells assessed as accumulation of cells at G0/G1 phase at 0.25 uM for 24 hrs by Click-iT EdU Alexa Fluor 647 flow cytometric assay kit analysis (reference value: 48%). The class given is functional.
The test system of test [32] is NCI-H1373. As to the kind of experiment: Induction of cell cycle arrest in human NCI-H1373 cells assessed as accumulation of cells at G0/G1 phase at 0.5 uM for 24 hrs by Click-iT EdU Alexa Fluor 647 flow cytometric assay kit analysis (reference value: 48%). The class given is functional.
Test [33] relates to NCI-H460. The test is described as follows: Induction of cell cycle arrest in human NCI-H460 cells assessed as accumulation of cells at S phase at 0.1 uM for 24 hrs by Click-iT EdU Alexa Fluor 647 flow cytometric assay kit analysis (reference value: 54%). The class given is functional.
In test [34] the test system is NCI-H460. As to the kind of experiment: Induction of cell cycle arrest in human NCI-H460 cells assessed as accumulation of cells at S phase at 1 uM for 24 hrs by Click-iT EdU Alexa Fluor 647 flow cytometric assay kit analysis (reference value: 54%). The class given is functional.

Molecules are shown by their SMILES. The source made the active and inactive calls. The calls are words filed in the database; no cut-off is given here.

For orientation: T/C means the ratio of treated to control.

In the case of `Cc1sc2c(c1C)C(c1ccc(Cl)cc1)=N[C@@H](CC(=O)OC(C)(C)C)c1nnc(C)n1-2`, the Activity in test [1] turned out to be 2%; in test [2], 68%; in [4] it was 2.6%; in [5] it was 31%; in test [6], 0.1%; in test [7] it was 1.2%. Besides, the Activity was 1.8% in test [8], 0.9% in test [9], 21.9% in test [10] and 4.5% in test [12]. Moreover, the viability at 0.5 µM was determined as 61.3% in [3] and 91.2% in [11]. Also, the outcome in [13] was inactive. For the same compound, the outcome in test [14], in test [15], in test [17], in [18], in test [19] and in test [20] was Active. Besides, the outcome in test [21], in test [22], in test [23], in test [24] and in test [26] was Active. Moreover, the T/C is 32% in test [16] and 41% in test [27]. For the same compound, the viability at 1 µM in [25] was 17.8%.
For the compound `Cc1sc2c(c1C)C(c1ccc(Cl)cc1)=N[C@@H](CC(=O)Nc1ccc(O)cc1)c1nnc(C)n1-2` [BIRABRESIB], the Activity stood at 0.1% in [28], 1.5% in [29] and 1.1% in test [30].
On to `CCNC(=O)C[C@@H]1N=C(c2ccc(Cl)cc2)c2cc(OC)ccc2-n2c(C)nnc21` [MOLIBRESIB], for which the Activity in [31] is given as 65%; in [32] it was 73%; in test [33] it was 53%; in test [34], 47%.

(Values after ChEMBL document CHEMBL5712891, “Inhibition of BET bromodomain-dependent XIAP and FLIP expression sensitizes KRAS-mutated NSCLC to pro-apoptotic agents” (Cell Death Dis, 2016).)
